Values joined by “and” are separate entries in the source; they are usually repeats but may differ in a detail not shown here. Equal entries are not always repeated.
Assays:
SH-SY5Y-TrkA [1] = test: cSTAR analysis of RPPA perturbation data (STV dot product P, DPD output S), TrkA cells; assay type: cell-based, human; settings: ligand NGF, 45 minutes, calculated from RPPA data
Excerpt: (§1) Thus, we use this dimensionality reduced STV for estimating the network effects and biological outcomes of experimental perturbations. For each perturbation we determine a perturbation vector that connects the centroids of the point clouds that have been obtained before and after the perturbation. This vector changes the cell phenotype when it pushes the centroid of the original point cloud across the plane that separates different cell states, stabilizes a cell state when moving the centroid away from the separation plane, or has no effect when it is (nearly) parallel to the separation plane.
(§2) These outcomes can be quantified by determining the dot product (P) of the perturbation vector and the dimensionality reduced STV.
(§3) For a correct interpretation of perturbation data using the STV, we have to exclude the analytes that composed the modules of our core signaling network. Accordingly, the dimensionality of the molecular dataspace where the STV and perturbation vectors are calculated is reduced from 115 to 70, due to 45 analytes from Table S1A, related to the five proteins flagged in Table S3, being allocated to core network components, leaving the remaining 70 analytes to defined the reduced dimensionality dataspace.
(§4) Let A with the radius-vector {right arrow over (x)}A be the centroid of the point cloud Ai, corresponding to the unperturbed state 1. Let Apert with the radius-vector {right arrow over (x)}Apert be the centroid of the point cloud (Ai^pert), corresponding to the perturbed state 1. Then the perturbation vector is defined as,
(§5) The projection P of the perturbation vector {right arrow over (P)} on the STV ({right arrow over (s)}) is obtained as a dot product of these two vectors,
(§6) In the molecular dataspace, we consider the STV as a vector {right arrow over (s)} of unit length directed from a centroid of a differentiation TrkA point cloud to a centroid of a proliferation TrkB point cloud. We now define the output of the DPD module as the S value,
(§7) In this definition, the direction of the vector {right arrow over (n)}, which is orthogonal to the separation hyperplane, […]. Then, the DPD value (S) is positive for proliferation TrkB points and negative for differentiation TrkA points.
(§8) Using the STV ({right arrow over (s)}), a perturbation vector ({right arrow over (P)}) and the unit length vector ({right arrow over (n)}) orthogonal to the separation hyperplane, we can calculate how the DPD value changes following each inhibitor perturbation. The DPD values, determined for the centroids of unperturbed (A) and perturbed (Apert) states, S and Spert, respectively, are the following (see Eq. 9),
(§9) In order to reconstruct the posterior network, we used the drug perturbations described in Table 1, measuring 10 and 45 minute timepoints in TrkA and TrkB cells stimulated with NGF or BDNF, respectively.

SH-SY5Y-TrkA [2] = test: Differentiation of TrkA cells, live cell images at 72 hours; settings: SH-SY5Y-TrkA, ligand NGF, 72 hours
Protocol: SH-SY5Y cells stably expressing TrkA or TrkB receptors were stimulated with 100 ng/ml NGF or BDNF, respectively. Differentiation and proliferation were assessed 72 hours after growth factor treatment.
In FIGS. 35A-F, the live cell images are accompanied by bar plots showing the percentage of differentiated cells. The percentages were obtained by examining three images for each set of conditions, and counting the total number of cells and the number of differentiated cells.
FIG. 52 is a bar plot showing the percentage of differentiated cells for different treatments, measured by counting cells in images and calculating the ratio of differentiated cells to total cells.

phospho-Trk [3] = test: Phospho-Trk activity by Western blotting, TrkB cells; assay type: cell-based, human; settings: single replicates
Protocol: (§10) These antibodies detect phosphorylation sites that change protein activities or protein abundances. We measured pathway activities in untreated cells and cells treated with NGF (TrkA ligand) or BDNF (TrkB ligand) for 10 or 45 minutes. After normalization we calculated the fold changes in protein phosphorylation levels or abundances producing a data point for each protein.

phospho-Trk [4] = test: Phospho-Trk activity by Western blotting, TrkA cells; assay type: cell-based, human; settings: single replicates
Protocol: as §10

SH-SY5Y-TrkB [5] = test: cSTAR analysis of RPPA perturbation data (STV dot product P, DPD output S), TrkB cells; assay type: cell-based, human; settings: SH-SY5Y-TrkB, ligand BDNF, 45 minutes, calculated from RPPA data
Excerpt: as §1, §2
TrkB cells were treated with the p90RSK inhibitor BI-D1870. Data points were acquired corresponding to 45 min 100 ng/ml GF stimulation, and these were projected into the first 3 principal components in order to calculate the point cloud centroids. For clarity, only the centroids are shown in FIG. 7, corresponding to: TrkA 45 minute NGF, TrkB 45 minute BDNF before perturbation, and the perturbed centroid TrkB RSKi 45 minute BDNF.
as §3, §4, §5, §6, §7, §8, §9

SH-SY5Y-TrkB [6] = test: Differentiation of TrkB cells, live cell images at 72 hours; assay type: cell-based, human; settings: SH-SY5Y-TrkB, ligand BDNF, 72 hours
Protocol: FIG. 45 is a live cell image of TrkB cells stimulated with BDNF taken at 72 hours. FIG. 46 is a live cell image of BDNF-stimulated TrkB cells treated with 0.2 μM Trametinib taken at 72 hours. FIG. 47 is a live cell image of BDNF-stimulated TrkB cells treated with 2.5 μM Gefitinib taken at 72 hours. […] FIG. 49 is an additional experiment, being a live cell image of BDNF-stimulated TrkB cells treated with a combination of 2.5 μM Gefitinib and 0.05 μM Trametinib taken at 72 hours.

Oc1c2ccccc2c2c3c(cccc13)N=N2 [Trk inhibitor, SP600125]
Change in the DPD output ΔS (SH-SY5Y-TrkA [1]): −2.53 ± 0.35 | DPD output S (SH-SY5Y-TrkA [1]): −4.84 ± 0.16 | Experimentally measured percentage of differentiated cells (SH-SY5Y-TrkA [2]): 64.4% ± 2.5% | phospho-Trk (phospho-Trk [3]; 10 min ligand stimulation): 3.716 and 1.408 | phospho-Trk (phospho-Trk [3]; 45 min ligand stimulation): 3.539 | phospho-Trk (phospho-Trk [4]; 10 min ligand stimulation): 0.8871 and 0.6065 | phospho-Trk (phospho-Trk [4]; 45 min ligand stimulation): 0.724 | Change in the DPD output ΔS (SH-SY5Y-TrkB [5]): −9.6 ± 0.6 | DPD output S (SH-SY5Y-TrkB [5]): −3.84 ± 0.03 | Experimentally measured percentage of differentiated cells (SH-SY5Y-TrkB [6]): 55% ± 4%
